For one assay, the system named is phospholipase D1. Kind of assay: PLD activity in HCT116 cells ([3H]phosphatidylbutanol, TLC). It counts as cell-based, human. To be noted: compound 10 μM, cells without the compound = 100%.
For assay [1], the system named is normal colon epithelial cells (FHC). The experiment in a line: Cell cycle analysis (BrdU/7-AAD flow cytometry) in normal cells. To be noted: 5-FU 10 μM, 48 hours. It is filed as cell-based. The protocol: (§1) To observe cell cycle changes, normal colon epithelial cells (FHC) and human colon cancer cell line DLD1 were treated with compound 1-91 at 2 μM and the positive control 5-FU at 10 μM. After 48 hours, the cells were washed with PBS, harvested, and sequentially treated with bromodeoxyuridine (BrdU) and 7-aminoactinomycin D (7-AAD). The cells were then stained with an anti-BrdU antibody conjugated with fluorescein isothiocyanate (FITC) and analyzed using a flow cytometer.
(In general: A flow cytometer gives signals particle by particle.)

The test system of assay [2] is human colon cancer cell line DLD1. The experiment in a line: Cell cycle analysis (BrdU/7-AAD flow cytometry) in cancer cells. It is filed as cell-based. To be noted: DLD1, 5-FU 10 μM, 48 hours. The protocol: as §1
The subject of assay [3] is normal colon epithelial cells (FHC). Kind of assay: Apoptosis (annexin V-FITC) in normal cells. It counts as cell-based. The note with it: 5-FU 10 μM, 48 hours. The protocol:
(§2) To observe changes in apoptosis, normal colon epithelial cells (FHC) and human colon cancer cell line (DLD1) were treated with compound 1-91 at 2 μM and the positive control 5-FU at 10 μM. After 48 hours, the cells were washed with PBS, harvested, and analyzed for apoptosis using an annexin V-FITC apoptosis detection kit.

Assay [4] concerns human colon cancer cell line (DLD1). Kind of assay: Apoptosis (annexin V-FITC) in cancer cells. It counts as cell-based. The note with it: DLD1, 5-FU 10 μM, 48 hours. The protocol: as §2

`O=C(Nc1ccc(O)c(O)c1)c1cc2ccccc2[nH]1` [Example 1-109, N-(3,4-dihydroxyphenyl)-1H-indole-2-carboxamide]: in the assay on phospholipase D1, the “Remaining activity % at 10 μM” value was “not active”.

Take `O=C(Nc1ccc(O)c(O)c1)c1cc2cc(F)ccc2[nH]1` [Example 1-110, N-(3,4-dihydroxyphenyl)-5-fluoro-1H-indole-2-carboxamide]: the “Remaining activity % at 10 μM” value with phospholipase D1 amounted to 28.85%.

`O=C(NCc1ccc(O)c(O)c1)c1cc2cc(F)ccc2[nH]1` [Example 1-111, N-(3,4-dihydroxybenzyl)-5-fluoro-1H-indole-2-carboxamide]: the “Remaining activity % at 10 μM” value in the assay on phospholipase D1 is 54.41%.

Turning to `O=C(Nc1cc(O)cc(O)c1)c1cc2cc(F)ccc2[nH]1` [Example 1-112, N-(3,5-dihydroxyphenyl)-5-fluoro-1H-indole-2-carboxamide], in the assay on phospholipase D1, the “Remaining activity % at 10 μM” value is “not active”.

Turning to `O=C(Nc1cc(C(F)(F)F)cc(C(F)(F)F)c1)c1cc2cc(F)c(F)cc2[nH]1` [Example 1-113, N-(3,5-bis(trifluoromethyl)phenyl)-5,6-difluoro-1H-indole-2-carboxamide], the “Remaining activity % at 10 μM” value in the assay on phospholipase D1 is 42.48%.

Take `Cn1c(C(=O)Nc2cc(C(F)(F)F)cc(C(F)(F)F)c2)cc2cc(F)c(F)cc21` [Example 1-114, N-(3,5-bis(trifluoromethyl)phenyl)-5,6-difluoro-1-methyl-1H-indole-2-carboxamide]: the “Remaining activity % at 10 μM” value with phospholipase D1 came to 48.24%.

`O=C(Cc1c[nH]c2ccccc12)OCc1ccc([N+](=O)[O-])cc1` [Example 1-115, 4-nitrobenzyl 2-(1H-indol-3-yl)acetate]: in the assay on phospholipase D1, the “Remaining activity % at 10 μM” value is listed as 55.24%.

With `COc1ccc(COC(=O)c2cc3ccccc3[nH]2)cc1` [Example 1-116, 4-methoxybenzyl 1H-indole-2-carboxylate], the “Remaining activity % at 10 μM” value in the assay on phospholipase D1 was 52.66%.

In the case of `COc1ccc(COC(=O)CCCc2c[nH]c3ccccc23)cc1` [Example 1-117, 4-methoxybenzyl 4-(1H-indol-3-yl)butanoate], the “Remaining activity % at 10 μM” value in the assay with phospholipase D1 came out at 72.65%.

`O=C(Oc1cc(C(F)(F)F)cc(C(F)(F)F)c1)c1cc2cc(F)ccc2[nH]1` [Example 1-118, 3,5-bis(trifluoromethyl)phenyl 5-fluoro-1H-indole-2-carboxylate]: in the assay on phospholipase D1, the “Remaining activity % at 10 μM” value worked out at 49.17%.

For the molecule `O=C(CCCC[C@@H]1SC[C@@H]2NC(=O)N[C@@H]21)NNC(=O)c1ccc2[nH]c(C(=O)Nc3cc(C(F)(F)F)cc(C(F)(F)F)c3)cc2c1` [Example 1-119, N-(3,5-bis(trifluoromethyl)phenyl)-5-(2-(5-((3aS,4S,6aR)-2-oxohexahydro-1H-thieno[3,4-d]imidazol-4-yl)pentanoyl)hydrazine-1-carbonyl)-1H-indole-2-carboxamide], the “Remaining activity % at 10 μM” value in the assay with phospholipase D1 was determined as 27.26%.

On to `O=c1[nH]cc(F)c(=O)[nH]1` [Example 5-FU, reference compound], for which the “cell cycle arrest, normal cells” value in assay [1] is “arrested the cell cycle at the G0/G1 phase in normal cells”. For the same molecule, the “cell cycle arrest, cancer cells” value in assay [2] was “at the Sub G1 phase in cancer cells”. In addition, in assay [3], the “apoptosis, normal cells” value was “induced apoptosis in both normal and cancer cells”. Besides, the “apoptosis, cancer cells” value in assay [4] is “induced apoptosis in both normal and cancer cells”.

These data come from patent publication US20260138949A1, “NOVEL COMPOUND AS PHOSPHOLIPASE D INHIBITOR AND USE THEREOF” (UIF (UNIVERSITY INDUSTRY FOUNDATION), YONSEI UNIVERSITY, priority 2022, published 2026).
